Key:
[1] = tested on: adipose-derived MSCs; experiment: in vitro
Protocol: (§1) Using IC50 values as a concentration ceiling, the cytocompatibility of citric acid, NaHCO3, and Irgacure 2959 was measured with adipose-derived MSCs at concentrations of 0.25, 1, and 0.2% (w/v) in DMEM, respectively. MSCs were seeded in 24 well plates at 2,500 cells per well. […] After incubation, cells were treated with a resazurin assay for 2 hours for cytocompatibility measurements or with Live/Dead assay stains and imaging for morphology analysis.

[2] = tested on: 3T3 mouse fibroblasts; experiment: IC50 values of foaming components, resazurin assay (Alamar Blue); format: cell-based; details: 20-minute exposure
Protocol: Cells were cultured in DMEM with 10% fetal bovine serum (FBS) and 1% penicillin-streptomycin (pen-strep) at 37° C. with 5% CO2. Cells were trypsinized and seeded at a density of 5,000 cells per well in a 96-well plate. […] After a 20-minute exposure, solutions were removed, and cell viability was measured compared to an untreated control using a resazurin assay (Alamar Blue) read by a plate reader. Cell viability was calculated as: […]
The blank was a well with media only and no cells.

[3] = in vitro
Protocol: as §1

In the case of `CC(C)(O)C(=O)c1ccc(OCCO)cc1` [Irgacure 2959], the “MSC viability after 24-hour recovery” value [1] is reported as 99% and the “MSC viability after 1 hour of exposure” value [1] is reported as 99%.
With `O=C([O-])O.[Na+]` [NaHCO3, sodium bicarbonate] the “MSC viability after 24-hour recovery” value ([1]; citric acid 0.25%, Irgacure 2959 0.2%, NaHCO3 1% (w/v) in DMEM, 24-hour recovery) was 95% and the “MSC viability after 1 hour of exposure” value ([1]; citric acid 0.25%, Irgacure 2959 0.2%, NaHCO3 1% (w/v) in DMEM, 1 hour exposure) was 98%.
`O=C(O)CC(O)(CC(=O)O)C(=O)O` [Citric acid, citric acid] gave an IC50 [2] of 0.23 wt %, a viability at 1 h, 0.25 % (w/v) [3] of 51% and a viability at 24 h, 0.25 % (w/v) [3] of 21%.
